Test results taken from patent US6555529B1, “Remedies for intramedullary diseases” (Toray Industries, Inc., priority 1997, dated 2003).
Marks after values point to notes of the source that are not given here.

Legend:
[1] = tested on: osteomyelitis accompanying adjuvant arthritis (neutrophil infiltration into joints); test: Suppression of osteomyelitis accompanying rat adjuvant arthritis; format: in vivo; conditions: for Osteomyelitis score for the intertarsal and tarsometatarsal joints / Osteomyelitis score for the talocrural joint region: Lewis rats, scored day 22, grades 0-3, mean ± SE; for osteomyelitis suppressing effect (in words): rat adjuvant arthritis, summary of Table 1
Description: 0.1 mg of inactivated dried Mycobacterium butyricum was suspended in 0.1 ml of liquid paraffin, and this was injected into the left hind foot pad of 8-week old female Lewis rats. […] As a control group, the subcutaneous administration of sterile distilled water was carried out. One day after the completion of the administration (day 22) the rats were sacrificed, the skin and muscle removed from the right hind limb and, following decalcification, pathological specimens were prepared. […] Furthermore, Diclofenac (Compound 4) and Indomethacin (Compound 5) were used as existing anti-inflammatory drugs. The results obtained are shown in Table 1 as mean values±standard errors. Using the […] multiple comparison method (parametric), the results were assigned the symbol * when significant at a level of significance of p<0.05, and the symbol ** when significant at a level of significance of p<0.01, compared to the control group in which only sterile distilled water was used.

[2] = tested on: B-cell-type acute lymphoblastic leukaemia cell strain CCRF-SB; test: Suppression of CCRF-SB cell proliferation (MTT assay); format: cell-based; set-up: unit of the concentration uncertain; conditions: 120 hours culture, mean ± SE
Description: (§1) Acute promyelocytic leukaemia cell strain KG-1, T-cell type acute lymphoblastic leukaemia cell strain RPMI-8402, B-cell-type acute lymphoblastic leukaemia cell strain CCRF-SB, chronic myelocytic leukaemia cell strain K562 and myeloblastoma cell strain ML-2 were prepared at concentrations of 2×10^4 or 4×10^4 cells per ml of culture medium. In each case, 0.05 ml quantities were added per well of a 96 well culture plate and culturing carried out at a carbon dioxide concentration of 5% for 24 hours at 37° C. Furthermore, 0.05 ml quantities of culture medium to which Compound 1 had been added were added to the aforesaid culture plate, and culturing carried out under the same conditions for 120 hours. The number of cells when the culturing was completed was calculated by the MTT calorimetric assay and the percentage suppression of tumour cell proliferation in terms of a control group to which no compound had been added was determined.
(§2) As well as Compound 1, there were used as test compounds 1-hydroxyethane-1,1-bisphosphonic acid disodium salt (Compound 6) and (4-chlorophenylthio)methane-1,1-bisphosphonic acid disodium salt (Compound 7). The results are shown in Table 2 as mean values±standard errors.
(§3) Using Dunett multiple comparison method (parametric), the results were assigned the symbol * when significant at a level of significance of p<0.05, and the symbol *** when significant at a level of significance of p<0.001, compared to the control group.

[3] = tested on: myeloblastoma cell strain ML-2; test: Suppression of ML-2 cell proliferation (MTT assay); format: cell-based; set-up: unit of the concentration uncertain; conditions: 120 hours culture, mean ± SE
Description: as §1, §2, §3

tumour cells = test: Suppression of leukaemia cell and myeloma cell proliferation (summary over all cell strains); format: cell-based; conditions: summary of Table 2
Description: as §1
As well as Compound 1, there were used as test compounds 1-hydroxyethane-1,1-bisphosphonic acid disodium salt (Compound 6) and (4-chlorophenylthio)methane-1,1-bisphosphonic acid disodium salt (Compound 7). The results are shown in Table 2 as mean values±standard errors. […]

[4] = tested on: acute promyelocytic leukaemia cell strain KG-1; test: Suppression of KG-1 cell proliferation (MTT assay); format: cell-based; set-up: unit of the concentration uncertain; conditions: 120 hours culture, mean ± SE
Description: as §1, §2, §3

[5] = tested on: T-cell type acute lymphoblastic leukaemia cell strain RPMI-8402; test: Suppression of RPMI-8402 cell proliferation (MTT assay); format: cell-based; conditions: 120 hours culture, mean ± SE
Description: as §1, §2, §3

[6] = tested on: chronic myelocytic leukaemia cell strain K562; test: Suppression of K562 cell proliferation (MTT assay); format: cell-based; set-up: unit of the concentration uncertain; conditions: 120 hours culture, mean ± SE
Description: as §1, §2, §3

Question: With `NCCCC(O)(P(=O)(O)O)P(=O)(O)O` [Compound 2, 4-amino-1-hydroxybutane-1,1-bisphosphonic acid] as the compound, how does the “Osteomyelitis score for the intertarsal and tarsometatarsal joints” value ([1]; 0.31 mg/kg, Table 1-2) read?
Answer: Its value is 0.2 ± 0.17**.

Question: And the “Osteomyelitis score for the talocrural joint region” value ([1]; 0.31 mg/kg, Table 1-2)?
Answer: Its value is 0.0 ± 0.0**.

Question: What about the “osteomyelitis suppressing effect (in words)” value [1] of the same compound?
Answer: The value was “suppressed”.

Question: What does the source list for `O=P([O-])([O-])C(Sc1ccc(Cl)cc1)P(=O)(O)O.[Na+].[Na+]` [Compound 7, (4-chlorophenylthio)methane-1,1-bisphosphonic acid disodium salt]?
Answer: Percentage suppression of CCRF-SB cell proliferation ([2]; 1 (unit uncertain)): 61.3 ± 1.1*** %; Percentage suppression of CCRF-SB cell proliferation ([2]; 10 (unit uncertain)): 0.1 ± 1.9%; Percentage suppression of CCRF-SB cell proliferation ([2]; 100 (unit uncertain)): 3.5 ± 2.2%; Percentage suppression of ML-2 cell proliferation ([3]; 1 (unit uncertain)): 130.4 ± 11.2*** %; Percentage suppression of ML-2 cell proliferation ([3]; 10 (unit uncertain)): 7.3 ± 7.3%; Percentage suppression of ML-2 cell proliferation ([3]; 100 (unit uncertain)): 42.8 ± 10.1* %; proliferation of tumour cells (in words) (tumour cells): suppressed; Percentage suppression of KG-1 cell proliferation ([4]; 1 (unit uncertain)): 97.1 ± 0.6*** %; Percentage suppression of KG-1 cell proliferation ([4]; 10 (unit uncertain)): −1.1 ± 1.1%; Percentage suppression of KG-1 cell proliferation ([4]; 100 (unit uncertain)): 2.2 ± 1.6%; Percentage suppression of RPMI8402 cell proliferation ([5]; 1 mM): 87.2 ± 0.6*** %; Percentage suppression of RPMI8402 cell proliferation ([5]; 10 mM): −2.5 ± 2.0%; Percentage suppression of RPMI8402 cell proliferation ([5]; 100 mM): 7.4 ± 6.3%; Percentage suppression of K562 cell proliferation ([6]; 1 (unit uncertain)): 97.8 ± 0.3*** %; Percentage suppression of K562 cell proliferation ([6]; 10 (unit uncertain)): −1.0 ± 1.3%; Percentage suppression of K562 cell proliferation ([6]; 100 (unit uncertain)): −3.1 ± 0.5%

Question: How did the “Osteomyelitis score for the intertarsal and tarsometatarsal joints” value ([1]; 0.1 mg/kg, Table 1-4) turn out when `O=C(O)Cc1ccccc1Nc1c(Cl)cccc1Cl` [Compound 4, Diclofenac, reference compound] was run?
Answer: Its value is 1.8 ± 0.2.

Question: And the “Osteomyelitis score for the talocrural joint region” value ([1]; 0.1 mg/kg, Table 1-4)?
Answer: The value was 1.2 ± 0.3.

Question: What about the “osteomyelitis suppressing effect (in words)” value [1] of the same compound?
Answer: The value was “weak”.

Question: For `O=P(O)(O)C(O)(Cc1cccnc1)P(=O)(O)O` [Compound 3, 2-(3-pyridyl)-1-hydroxyethane-1,1-bisphosphonic acid], which “Osteomyelitis score for the intertarsal and tarsometatarsal joints” value ([1]; 0.31 mg/kg, Table 1-3) is on record?
Answer: Its value is 0.0 ± 0.0**.

Question: What about the “Osteomyelitis score for the talocrural joint region” value ([1]; 0.31 mg/kg, Table 1-3) of the same compound?
Answer: The value was 0.0 ± 0.0**.

Question: What about the “osteomyelitis suppressing effect (in words)” value [1] of the same compound?
Answer: Its value is “suppressed”.

Question: Which “Percentage suppression of CCRF-SB cell proliferation” value ([2]; 1 (unit uncertain)) does the source give for `CC(O)(P(=O)([O-])[O-])P(=O)(O)O.[Na+].[Na+]` [Compound 6, 1-hydroxyethane-1,1-bisphosphonic acid disodium salt] here?
Answer: Its value is 42.1 ± 0.9*** %.

Question: What about the “Percentage suppression of CCRF-SB cell proliferation” value ([2]; 10 (unit uncertain)) of the same compound?
Answer: Its value is 2.2 ± 0.8%.

Question: What about the “Percentage suppression of CCRF-SB cell proliferation” value ([2]; 100 (unit uncertain)) of the same compound?
Answer: The value was 0.4 ± 1.2%.

Question: What about the “Percentage suppression of ML-2 cell proliferation” value ([3]; 1 (unit uncertain)) of the same compound?
Answer: The value was 147.2 ± 20.4*** %.

Question: And the “Percentage suppression of ML-2 cell proliferation” value ([3]; 10 (unit uncertain))?
Answer: Its value is −20.6 ± 17.2%.

Question: What about the “Percentage suppression of ML-2 cell proliferation” value ([3]; 100 (unit uncertain)) of the same compound?
Answer: Its value is 16.0 ± 17.2%.

Question: And the “proliferation of tumour cells (in words)” value (tumour cells)?
Answer: The value was “suppressed”.

Question: And the “Percentage suppression of KG-1 cell proliferation” value ([4]; 1 (unit uncertain))?
Answer: Its value is 40.7 ± 1.7*** %.

Question: And the “Percentage suppression of KG-1 cell proliferation” value ([4]; 10 (unit uncertain))?
Answer: Its value is 1.6 ± 2.1%.

Question: What about the “Percentage suppression of KG-1 cell proliferation” value ([4]; 100 (unit uncertain)) of the same compound?
Answer: Its value is 2.9 ± 2.4%.

Question: And the “Percentage suppression of RPMI8402 cell proliferation” value ([5]; 1 mM)?
Answer: Its value is 28.2 ± 2.0*** %.

Question: What about the “Percentage suppression of RPMI8402 cell proliferation” value ([5]; 10 mM) of the same compound?
Answer: Its value is −3.4 ± 1.3%.

Question: What about the “Percentage suppression of RPMI8402 cell proliferation” value ([5]; 100 mM) of the same compound?
Answer: The value was 2.9 ± 1.5%.

Question: What about the “Percentage suppression of K562 cell proliferation” value ([6]; 1 (unit uncertain)) of the same compound?
Answer: Its value is 44.4 ± 1.3*** %.

Question: What about the “Percentage suppression of K562 cell proliferation” value ([6]; 10 (unit uncertain)) of the same compound?
Answer: The value was −2.5 ± 0.3%.

Question: And the “Percentage suppression of K562 cell proliferation” value ([6]; 100 (unit uncertain))?
Answer: The value was 3.2 ± 0.6%.

Question: `COc1ccc2c(c1)c(CC(=O)O)c(C)n2C(=O)c1ccc(Cl)cc1` [Compound 5, Indomethacin, reference compound] was tested. Which “Osteomyelitis score for the intertarsal and tarsometatarsal joints” value ([1]; 0.1 mg/kg, Table 1-5) did it give?
Answer: The value was 2.5 ± 0.2.

Question: And the “Osteomyelitis score for the talocrural joint region” value ([1]; 0.1 mg/kg, Table 1-5)?
Answer: The value was 1.8 ± 0.4.

Question: And the “osteomyelitis suppressing effect (in words)” value [1]?
Answer: Its value is “weak”.
